The structures appear in SMILES notation. Values joined by “and” are separate entries in the source; they are usually repeats but may differ in a detail not shown here. Equal values may be shown once.

The target in the assay is T1, 5-lipoxygenase (Homo sapiens, UniProt P09917).
T1 construct: endogenous in cells; host or cells: intact leukocytes isolated from human blood
T1 sequence (P09917 1-674): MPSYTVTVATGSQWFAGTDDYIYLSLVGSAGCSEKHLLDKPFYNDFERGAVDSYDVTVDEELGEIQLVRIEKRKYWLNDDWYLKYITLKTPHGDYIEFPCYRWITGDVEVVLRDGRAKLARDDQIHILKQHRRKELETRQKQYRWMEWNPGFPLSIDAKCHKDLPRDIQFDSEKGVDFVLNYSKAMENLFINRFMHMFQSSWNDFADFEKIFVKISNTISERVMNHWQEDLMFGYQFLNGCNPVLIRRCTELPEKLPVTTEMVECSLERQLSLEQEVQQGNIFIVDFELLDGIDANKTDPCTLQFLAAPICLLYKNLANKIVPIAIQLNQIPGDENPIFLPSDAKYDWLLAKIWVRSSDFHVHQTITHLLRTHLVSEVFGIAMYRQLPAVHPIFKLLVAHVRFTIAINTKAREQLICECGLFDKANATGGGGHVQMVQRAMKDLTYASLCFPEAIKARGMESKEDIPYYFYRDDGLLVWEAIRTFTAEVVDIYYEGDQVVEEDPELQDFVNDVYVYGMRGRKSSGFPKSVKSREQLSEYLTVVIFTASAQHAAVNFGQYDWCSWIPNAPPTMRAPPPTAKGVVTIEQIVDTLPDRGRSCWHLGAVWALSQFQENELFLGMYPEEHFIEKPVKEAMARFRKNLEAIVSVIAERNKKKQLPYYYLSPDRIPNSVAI
Kind of assay: 5-Lipoxygenase Assay Using Isolated Human Leukocytes (5LOA2). The format is cell-based. The conditions noted are these: 5-HETE formation, HPLC, read-out: Concentration (M) for 50.0 % Inhibition, IC (5LOA2). Here is the method:
5-Lipoxygenase Assay Using Isolated Human Leukocytes (5LOA2)
The formation of 5-HETE in human leukocytes is considered a measure of 5-lipoxygenase activity. The protocol is described in the following.
Fresh heparinized or EDTA treated human blood is mixed with 6% dextran-3% dextrose in isotonic saline in the ratio 0.25 ml dextran solution per 1.0 ml blood. After mixing the blood is allowed to sit at room temperature for about 90 minutes while the RBC's settle. During this period, the plasma is removed with a plastic pepette to nalgens tubes.
The plasma is centrifuged at 800 rpm ([…]) on the Beckman Td-b refrigerated centrifuge to remove the platelets (which remain in the supernatant). The pellet, consisting of leukocytes and erythrocytes, is treated with 10 ml 0.87% ammonium chloride at room temperature for four minutes, lysing the red cells. At the end of four minutes the cells are diluted with a 2x volume of phosphate buffered saline, pH 7.4, and centrifuged for ten minutes. The cells are washed three times with the phosphate buffered saline. […]
A portion of the ethanol solution is injected into the HPLC system for 5-HETE quantitation.
The HPLC system consists of Hewlett-Packard 1040A UV spectrophotometry system with an HP85 computer. […] Peaks are measured with a Hewlett Packard 3390A integrator. […] The flow is monitored at 235 nm for 5-HETE quantitation. […]

As to `O=C(Nc1ccccc1CCc1ccc(Cl)c(Cl)c1)C1=C(O)c2ccccc2S(=O)(=O)C1` [Example 8, N-[2-[2-(3,4-Dichlorophenyl)ethyl]phenyl]-4-hydroxy-2H-1-benzothiopyran-3-carboxamide, 1,1-dioxide], the IC50 was 5e-06 M and 4.6e-06 M.
The same measure for `O=C(Nc1ccccc1Cc1ccc(Cl)c(Cl)c1)C1=C(O)c2ccccc2S(=O)(=O)C1` [Example 81, 2H-1-Benzothiopyran-3-carboxamide, N-[2-[(3,4-dichlorophenyl)methyl]phenyl]-4-hydroxy, 1,1-dioxide]: 8.4e-06 M.

These data come from patent US4868195A, “Novel enolamides, pharmaceutical compositions and methods of use thereof for activity as modulators of the arachidonic acid cascade” (Warner-Lambert Company, priority 1988, dated 1989).
